Results: patent US10202334B2, “Pendant amines and derivatives as inhibitors of leukotriene A4 hydrolase” (Celtaxsys, Inc., priority 2016, dated 2019)
Where two headings read alike, the source gives them in different places.

Columns and labels:
[1] = tested on: production of LTB4 in whole blood; assay: Human whole blood assay (LTB4 release upon calcium ionophore, ELISA); type: cell-based
Procedure: Compounds of the invention were tested for their ability as inhibitors of LTA4 hydrolase in a whole blood assay using human, mouse, rat or dog whole blood in a manner similar to that described in Penning, T. D. et al., J. Med. Chem. (2000), 43(4): 721-735. In this assay, compounds were tested for their ability to inhibit LTB4 release upon stimulation with calcium ionophore. The LTB4 levels in supernatants were measured by ELISA.

[2] = target: T1, LTA4 hydrolase peptidase activity (Homo sapiens, UniProt P09960); assay: Peptidase assay (hydrolysis of L-alanine-p-nitroanilide); type: biochemical
T1 sequence (P09960 1-611): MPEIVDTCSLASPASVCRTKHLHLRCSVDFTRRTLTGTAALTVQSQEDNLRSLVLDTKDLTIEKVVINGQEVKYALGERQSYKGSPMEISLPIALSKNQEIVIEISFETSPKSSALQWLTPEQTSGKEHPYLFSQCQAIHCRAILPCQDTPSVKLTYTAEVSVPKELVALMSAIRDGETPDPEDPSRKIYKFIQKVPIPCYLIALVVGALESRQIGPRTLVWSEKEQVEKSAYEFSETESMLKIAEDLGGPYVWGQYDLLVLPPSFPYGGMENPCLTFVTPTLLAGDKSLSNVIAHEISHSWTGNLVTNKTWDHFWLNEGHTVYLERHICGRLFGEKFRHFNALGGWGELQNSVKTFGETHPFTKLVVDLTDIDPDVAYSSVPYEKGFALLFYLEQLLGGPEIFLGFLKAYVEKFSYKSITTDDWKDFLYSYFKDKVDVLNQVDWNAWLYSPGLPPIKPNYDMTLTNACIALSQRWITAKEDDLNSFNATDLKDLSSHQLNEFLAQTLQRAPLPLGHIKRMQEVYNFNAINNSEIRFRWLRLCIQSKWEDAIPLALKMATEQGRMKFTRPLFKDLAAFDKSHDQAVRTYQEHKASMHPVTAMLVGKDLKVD
Procedure: Inhibition of peptidase activity was measured for the compounds of the invention by using methods similar to those described in Kull, F. et al., The Journal of Biological Chemistry 1999, 274 (49): 34683-34690.
In brief, the enzyme (29 nM) was incubated with L-alanine-p-nitroanilide (1 mM) in 50 mM HEPES (pH 7.5), 100 mM KCL, 1% DMSO in the absence or presence of a compound of the invention for 1 hour at ambient temperature. Reaction was terminated by addition of acetic acid (1%). Formation of colored nitro-aniline was measured by the increase in absorbance at 405 nm in a Victor 2 plate reader (Wallac). Spontaneous hydrolysis of the substrate was corrected for by subtracting the absorbance of control incubations without enzyme.

[3] = target: T2, recombinant human LTA4 hydrolase (Homo sapiens, UniProt P09960); assay: LTA4 hydrolase homogeneous time resolved fluorescence (HTRF) assay; type: biochemical
T2 sequence (P09960 1-611): T1 sequence (P09960 1-611)
Procedure: Compounds of the invention were tested in the LTA4 hydrolase homogeneous time resolved fluorescence (HTRF) assay to determine their ability to inhibit the hydrolysis of LTA4 to LTB4. The assay analyzes the amount of LTB4 produced.
LTA4 HTRF assay is a two-step assay involving enzymatic conversion of LTA4 to LTB4, and subsequent quantification of LTB4, product with HTRF assay.
The enzymatic conversion of LTA4 to LTB4 was performed in 384-well plates at ambient temperature in a reaction mixture containing 50 mM HEPES (pH 7.5), 0.5% BSA (fatty acid free), 18 nM recombinant human LTA4 hydrolase, 150 nM LTA4, 1% DMSO in the absence or presence of a compound of the invention. Reaction was stopped after 10 minutes incubation by diluting the incubation mixture 10-fold in 50 mM phosphate, 0.1% casein buffer (pH 7.0).
LTB4 formed was quantified with the HTRF assay in which free LTB4 competes with LTB4-XL665 conjugate (acceptor) for anti-LTB4 monoclonal antibody labeled with Europium cryptate (donor), thereby inhibiting the fluorescence energy transfer.
The LTB4 HTRF 384-well assay was carried out by incubating LTB4 samples or standards with LTB4-XL665 conjugate (7.5 ng/well) and anti-LTB4 monoclonal antibody-Europium cryptate conjugate (0.5 ng/well) in 50 mM phosphate, 0.4 M KF and 0.1% casein, buffer (pH 7.0) for two hours at ambient temperature. Plates were read in a RubyStar plate reader (BmG Labtechnologies Inc., NC) simultaneously at 620 nm and 665 nm to obtain signal ratios of 665 nm/620 nm. Results of energy transfer were expressed as delta F (%) which equaled [(signal ratio of sample-signal ratio of negative control)/(signal ratio of negative control)]×100%. Negative controls were control samples without LTB4 or LTB4-XL665.
Sample LTB4 concentrations were calculated from the LTB4 standard curve using the 4-parameter fit equation. For determination IC50 values for a particular compound of the invention, eight serially diluted compound concentrations (at 1:3.16 dilution) were used in this assay. Controls without a compound of the invention or with a reference compound were run parallel in the same assay plate.

[4] = Homo sapiens, whole blood, read-out: inhibit production of LTB4 in whole blood, IC50 value
[5] = Table 1, human whole blood, read-out: Human Whole Blood IC50
[6] = read-out: inhibit peptidase activity, IC50 value
[7] = read-out: inhibit LTA4 hydrolase activity, IC50 value
[8] = Table 1, read-out: Hydrolase IC50
[9] = Table 1, read-out: Peptidase IC50

Row | Compound | IC50 [1, 4] [nM] | IC50 [1, 5] [nM] | IC50 [2, 6] [nM] | IC50 [3, 7] [nM] | IC50 [3, 8] [nM] | IC50 [2, 9] [nM] | IC50 ([1]; whole blood, read-out: inhibit production of LTB4 in whole blood, IC50 value) [nM]
1 | COC(=O)CCC(=O)NCC(N)CCC(=O)Nc1ccc(Oc2ccccc2)cc1 (stereo in doubt) [Example 6, methyl 3-{[(2R)-2-amino-4-[(4-phenoxyphenyl)carbamoyl]butyl]carbamoyl}propanoate] | 252 | 252 | 215 |  |  |  | 
2 | NC(CCC(=O)NCCN1CCCC1)C(=O)Nc1ccc(Oc2ccc(-n3cccc3)cc2)cc1 (stereo in doubt) [Example 7, (2R)-2-amino-N-{4-[4-(1H-pyrrol-1-yl)phenoxy]phenyl}-N′-[2-(pyrrolidin-1-yl)ethyl]pentanediamide] | 138 | 138 | 25 | 38 |  |  | 
3 | N[C@@H](CCC(=O)Nc1ccc(OCc2ccccc2)cc1)C(=O)NCc1ccccc1 [(2S)-2-amino-N-benzyl-N′-[4-(benzyloxy)phenyl]pentanediamide] |  |  |  |  | 107 | 118 | 
4 | NC(CCC(=O)Nc1ccc(Oc2ccccc2)cc1)C(=O)NCCCl (centres unmarked) [Example 3, 2-amino-N^1-(2-chloroethyl)-N^5-(4-phenoxyphenyl)pentanediamide] | 83 | 83 | 24 | 58 |  |  | 
5 | COC(=O)[C@@H](N)CCC(=O)Nc1ccc(Oc2ccc(-n3cccc3)cc2)cc1 [Example 4, methyl N^5-(4-(4-(1H-pyrrol-1-yl)phenoxy)phenyl)glutaminate] | 55 | 55 | 21 | 17 |  |  | 
6 | N[C@H](CCC(=O)Nc1ccc(Oc2ccc(-n3cccc3)cc2)cc1)C(=O)NCCc1cnc[nH]1 [Example 9, (2R)-2-amino-N-[2-(1H-imidazol-5-yl)ethyl]-N′-{4-[4-(1H-pyrrol-1-yl)phenoxy]phenyl}pentanediamide] | 664 | 664 | 53 | 10 |  |  | 
7 | (2S)-2-amino-N-[2-(pyridin-2-yl)ethyl]-N′-{4-[4-(1H-pyrrol-1-yl)phenoxy]phenyl}pentanediamide [Example 8] |  |  | 32 |  |  |  | 264

Continued, in another order:

Row | IC50 [1, 4] [nM] | IC50 [1, 5] [nM] | IC50 [2, 6] [nM] | IC50 [3, 7] [nM] | IC50 [3, 8] [nM] | IC50 [2, 9] [nM] | Compound | IC50 ([1]; whole blood, read-out: inhibit production of LTB4 in whole blood, IC50 value) [nM]
8 | 117 | 117 | 24 | 27 |  |  | CNC(=O)C(N)CCC(=O)Nc1ccc(OCc2ccccc2)cc1 (centres unmarked) [Example 1, 2-amino-N5-(4-(benzyloxy)phenyl)-N1-methylpentanediamide] | 
9 | 143 | 143 | 22 | 84 |  |  | NC(=O)C(N)CCC(=O)Nc1ccc(Oc2ccccc2)cc1 (centres unmarked) [Example 2, 4-amino-N1-(4-phenoxyphenyl)pentanediamide] | 
10 |  |  | 40 | 73 |  |  | CCOC(=O)CCNC(=O)[C@H](N)CCC(=O)Nc1ccc(Oc2ccccc2)cc1 [Example 10, ethyl 3-[(2R)-2-amino-4-[(4-phenoxyphenyl)carbamoyl]butanamido]propanoate] | 
11 | 113 | 113 | 21 |  |  |  | COC(=O)[C@@H](N)CCC(=O)Nc1ccc(OCC(O)c2ccccc2)cc1 (stereo partly drawn) [Example 11, methyl (2S)-2-amino-4-{[4-(2-hydroxy-2-phenylethoxy)phenyl]carbamoyl}butanoate] | 
12 | 184 | 184 | 213 |  |  |  | COC(=O)[C@@H](N)CCC(=O)Nc1ccc(Nc2ccccc2)cc1 [Example 12, methyl (2S)-2-amino-4-{[4-(phenylamino)phenyl]carbamoyl}butanoate] | 
13 |  | 61 |  |  | 67 | 31 | COC(=O)[C@@H](N)CCC(=O)Nc1ccc(OCC(=O)c2ccccc2)cc1 [methyl N5-(4-(2-oxo-2-phenylethoxy)phenyl)glutaminate] | 
14 |  | 41 |  |  |  | 146 | CC(C)(C)OC(=O)[C@@H](N)CCC(=O)Nc1ccc(CCC(=O)c2ccccc2)cc1 [tert-butyl N5-(4-(3-oxo-3-phenylpropyl)phenyl)glutaminate] | 
